The values that follow come from PMC8906844 (Organic & biomolecular chemistry, 2021).

One data set can be described thus: pKa measurement. The conditions noted are these: weak diprotic acid. Format: physicochemical.
A further data set addresses LAR (Homo sapiens, UniProt P10586). To be noted: 22 °C and pH 6.5; originally obtained; cited from earlier work.

LAR, sequence (P10586 30-1907): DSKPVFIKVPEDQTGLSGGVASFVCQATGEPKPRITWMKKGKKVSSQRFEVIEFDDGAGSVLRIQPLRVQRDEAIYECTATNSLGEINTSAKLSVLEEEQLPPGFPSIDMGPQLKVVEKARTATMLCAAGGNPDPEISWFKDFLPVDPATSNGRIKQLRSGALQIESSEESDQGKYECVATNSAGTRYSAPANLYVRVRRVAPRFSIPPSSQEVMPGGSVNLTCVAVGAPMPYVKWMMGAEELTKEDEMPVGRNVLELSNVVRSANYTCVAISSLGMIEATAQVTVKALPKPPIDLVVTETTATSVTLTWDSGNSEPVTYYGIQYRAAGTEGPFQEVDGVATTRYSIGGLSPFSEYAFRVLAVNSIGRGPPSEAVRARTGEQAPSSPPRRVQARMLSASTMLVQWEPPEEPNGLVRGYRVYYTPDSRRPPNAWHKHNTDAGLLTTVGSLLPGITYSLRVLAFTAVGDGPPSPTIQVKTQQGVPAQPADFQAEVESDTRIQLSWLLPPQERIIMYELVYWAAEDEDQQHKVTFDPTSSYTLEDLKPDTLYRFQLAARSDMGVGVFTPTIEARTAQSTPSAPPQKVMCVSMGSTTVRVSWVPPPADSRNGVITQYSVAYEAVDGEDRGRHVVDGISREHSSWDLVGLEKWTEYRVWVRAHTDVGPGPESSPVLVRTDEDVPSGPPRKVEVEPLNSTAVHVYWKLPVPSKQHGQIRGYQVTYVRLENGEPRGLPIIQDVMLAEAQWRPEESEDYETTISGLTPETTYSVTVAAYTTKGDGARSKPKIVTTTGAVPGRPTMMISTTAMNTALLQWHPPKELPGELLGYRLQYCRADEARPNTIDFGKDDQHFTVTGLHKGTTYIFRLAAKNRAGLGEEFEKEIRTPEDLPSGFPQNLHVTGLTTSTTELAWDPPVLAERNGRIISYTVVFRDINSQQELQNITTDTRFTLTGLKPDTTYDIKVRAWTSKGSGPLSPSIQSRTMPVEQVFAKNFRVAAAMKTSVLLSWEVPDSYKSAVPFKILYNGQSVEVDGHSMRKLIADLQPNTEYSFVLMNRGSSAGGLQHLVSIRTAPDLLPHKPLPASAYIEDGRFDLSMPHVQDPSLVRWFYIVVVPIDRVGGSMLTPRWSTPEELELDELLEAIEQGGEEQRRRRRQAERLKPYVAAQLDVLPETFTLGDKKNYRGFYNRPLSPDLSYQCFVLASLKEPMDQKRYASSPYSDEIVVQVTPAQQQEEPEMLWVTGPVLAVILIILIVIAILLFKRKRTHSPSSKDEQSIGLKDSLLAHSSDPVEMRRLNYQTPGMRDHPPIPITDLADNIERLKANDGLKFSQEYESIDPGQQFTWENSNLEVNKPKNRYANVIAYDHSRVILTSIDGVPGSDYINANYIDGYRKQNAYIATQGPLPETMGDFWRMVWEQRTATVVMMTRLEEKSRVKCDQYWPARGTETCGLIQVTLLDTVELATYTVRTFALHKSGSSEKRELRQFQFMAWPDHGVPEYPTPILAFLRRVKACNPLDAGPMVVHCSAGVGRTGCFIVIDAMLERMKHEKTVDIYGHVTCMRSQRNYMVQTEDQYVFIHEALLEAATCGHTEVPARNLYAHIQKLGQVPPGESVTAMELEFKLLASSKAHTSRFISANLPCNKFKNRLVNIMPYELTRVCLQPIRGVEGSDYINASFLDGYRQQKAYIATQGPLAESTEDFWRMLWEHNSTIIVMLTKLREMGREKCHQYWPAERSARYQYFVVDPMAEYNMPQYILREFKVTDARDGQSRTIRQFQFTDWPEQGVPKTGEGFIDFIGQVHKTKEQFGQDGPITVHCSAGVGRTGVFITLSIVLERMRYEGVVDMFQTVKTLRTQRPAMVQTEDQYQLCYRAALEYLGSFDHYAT

Usually pKa stands for the pH at which an ionisable group is half protonated. For the compound `CC1(C)Cc2c(O)c(C=O)c3c(c2C1)C(=O)OC(O)C3` (stereo not drawn) [illudalic acid], the pKa was found to be 5.42 in “pKa measurement” (pKa (first), first value) and 6.6 in the data set “pKa measurement” (pKa (second), second value). In addition, the “t^∞1/2” value on LAR is listed as 0.5 min.
